# Experimental data: paper PMC10526274, “Epithelial-Immune Cell Crosstalk Determines the Activation of Immune Cells In Vitro by the Human Cathelicidin LL-37 at Low Physiological Concentrations” (Biomolecules, 2023)
# Experiments:
# [1] = system: human PBMCs; details: LL-37 at 5 μg/mL; cited from earlier work
# Experimental: In contrast to the chemotactic potential of LL-37, available data on its ability to induce cytokine production by different cells argue for the absence of its biological activity at low physiological concentrations of ∼5 μg/mL observed in non-inflamed tissues. […] In the current study, we used LL-37 at a concentration of 1 μM (4.5 μg/mL) to study whether this peptide had immunomodulatory activity under non-inflamed physiological conditions. In ou ...
# [2] = system: primary blood monocytes; experiment: Multiplex phosphoprotein signaling in monocyte lysates, monocytes alone + LL-37; type: cell-based, human; details: 1 µM LL-37, 2 h, mean MFI normalized to β-tubulin
# Experimental: Primary blood monocytes were isolated from PBMCs by plastic adhesion in the wells of a 24-well plate 24 h prior to the experiment. For that, 2 × 10^6 PBMC were seeded in each well in 2 mL of RPMI-1640 without supplements and kept for 1 h in a humidified CO2-incubator (5% CO2, 37 °C). Then, the adhered monocytes were thoroughly washed 3 times with the culture medium without supplements, and 600 µL of the complete RPMI-1640, supplemented with 10% Human AB serum, was added into each well. Then, 24 h later, the medium in the wells of a 24-well plate was replaced by a fresh medium with or without 1 µM of LL-37, and the permeable inserts with Caco-2 monolayers with TEER > 400 Ω × cm^2, containing 400 μL of the complete medium in their apical chamber, were immediately placed into the appropriate wells for 2 h. Then, 2 h later, the culture medium and the inserts were carefully removed, and the cells in each well were washed with PBS and lysed in 100 µL of MILLIPLEX MAP Lysis Buffer (cat. #43-040, Merck, Darmstadt, Germany), containing phosphatase inhibitors including 1 mM sodium orthovanadate (Na3VO4). To prevent protein degradation, a protease inhibitor cocktail (cat. #535140, Merck) was freshly added to the MILLIPLEX MAP Lysis Buffer. Cell lysate preparation was performed in accordance with the manufacturer’s instructions.
# The phosphorylation of the following key cell signaling kinases and transcription factors was measured in cell lysates by using the MILLIPLEX multi-pathway magnetic bead 9-plex kit (#48-680MAG, Merck), containing phosphorylation state-specific antibodies: ERK/MAP kinase 1/2 (Thr185/Tyr187), Akt (Ser473), STAT3 (Ser727), JNK (Thr183/Tyr185), p70S6 kinase (Thr412), NF-κB (Ser536), STAT5A/B (Tyr694/699), CREB (Ser133), and p38 (Thr180/Tyr182). β-Tubulin MAPmate magnetic beads (#46-713MAG, Merck) were used as an assay normalization control to normalize the total protein level between the samples. A multiplex assay was carried out in accordance with the manufacturer’s instructions with overnight incubation of the samples with primary antibodies to phosphorylated signaling proteins on the MAGPIX system (Merck) using the xPONENT 4.2 software (Merck). The final analysis of the acquired fluorescence data was performed with the MILLIPLEX Analyst v5.1 software (Merck). Normalized MFI values were compared with an unpaired two-sample t-test using GraphPad Prism v.8.0.1 (GraphPad Software). The p-values ≤ 0.05 were considered significant.
substance,measurement,setting,value
"LL-37: the only human cathelicidin, host defense antimicrobial peptide of 37 a.a. residues, produced by solid-phase peptide synthesis",Production of TNFα or IL-10 in human PBMCs,[1],not able to increase the production of TNFα or IL-10
same,phosphorylated STAT3,[2]; control 0.03,0.04 MFI
same,phosphorylated NF-kB,[2]; control 96.21,54.12 MFI
same,phosphorylated STAT5,[2]; control 134.68,66.15 MFI
same,phosphorylated JNK,[2]; control 214.97,140.9 MFI
same,phosphorylated p70S6K,[2]; control 279.26,462.14 MFI
same,phosphorylated Akt,[2]; control 3026,2827 MFI
same,phosphorylated ERK 1/2,[2]; control 5351,4054 MFI
same,phosphorylated p38,[2]; control 28314,24565 MFI
same,phosphorylated CREB,[2]; control 151618,112466 MFI
